# Assay: in vitro
# Conditions: human, hela cells, % viability
row,Structure (SMILES),"viability at 28.5 h, 10 µM [%]"
1,COc1cccc(N2C(=O)N[C@@H]3CCN(S(=O)(=O)c4ccccc4)[C@@H]3C2=O)c1 [CBK289283],111
2,Cc1ccc(S(=O)(=O)N(CC(=O)Nc2cccnc2)c2cccc(Br)c2)cc1 [CBK264094],62.8
3,Cc1ccc(N(CC(=O)Nc2cc(Cl)ccc2C)S(C)(=O)=O)cc1 [CBK264030],92.9
4,O=C(O)c1ccc(CSc2nnc(-c3ccccc3)n2Cc2ccccc2)cc1 [CBK265013],114
5,CC1=CC(C)C2C(=O)N(c3ccc(C(=O)O)cc3)C(=O)C2C1 (stereo not drawn) [CBK286923],87
6,COc1ccc2[nH]c(/C(C#N)=C\c3ccc(-c4cc(C(=O)O)ccc4Cl)o3)nc2c1 [CBK268370],90.4
7,CCCC/C=C/c1cnc2[nH]c(=O)n(CC(C)C)c2n1 [CBK064225],96.4
8,O=C(c1cccnc1)C1CCN(C(=O)C2CCCC2)CC1 [CBK283508],96.2
9,Cc1ccc(SCc2ccc(C(=O)NCc3cccnc3)cc2)cc1 [CBK268063],96.9
10,COc1cc2c(cc1OC)C(c1ccccc1)N(Cc1ccc(OCCO)cc1)CC2 (stereo not drawn) [CBK286359],80
11,CSCC(=O)N[C@H]1CCN2C(=O)N(c3cccc(C(C)=O)c3)C(=O)[C@@H]2C1 [CBK289546],90.6
12,COc1ccc(S(=O)(=O)N2CCC(C(=O)O)(c3ccccc3)CC2)cc1 [CBK267572],94.3
13,Cc1ccc2c(CC(=O)N3CCC(C(=O)O)CC3)coc2c1 [CBK286711],79.9
14,CC1=NN(C(=O)CSCc2ccccc2)C(O)(c2ccc(Cl)cc2)C1 (stereo not drawn) [CBK267136],92.7
15,CCn1nc(-c2ccc(Cl)cc2)c2c(=O)n(C)c(=O)[nH]c21 [CBK287845],108
16,O=C(NCc1n[nH]c(=O)c2ccccc12)Nc1ccc(F)cc1 [CBK287744],94.2
17,O=C(Cn1cnnn1)N1CCc2ccccc21 [CBK200367],97.4
18,Nc1ccc(/C=C/c2cccc(C(=O)O)n2)cc1 [CBK267711],89.7
19,Cc1ccc(Cc2cnc(NC(=O)C3CNC(=O)N3)s2)cc1F (stereo not drawn) [CBK305919],97.8
20,Cc1ccc(-c2nnc(CNC(=O)c3ccc(F)c(F)c3)o2)s1 [CBK284647],90.5
21,CC(C)(CNC(=O)Cn1cc(C(=O)Nc2ccc(F)cc2)ccc1=O)c1cccc(F)c1 [CBK286079],99.6

row,Structure (SMILES),"viability at 28.5 h, 10 µM [%]"
1,COc1cccc(CSC2=C(C#N)C(c3cccs3)C(C(=O)Nc3ccccc3)=C(C)N2)c1 (stereo not drawn) [CBK267458],83.2
2,COc1ccc(NS(=O)(=O)c2ccc(OCC(=O)N3CCN(C)CC3)cc2)cc1Cl [CBK269565],85.8
3,c1c(C2CC2)[nH]c2nc(N3CCCC3)nc(N3CCCC3)c12 [CBK016707G],113
4,COc1nccc(N2CCCC(CO)(CC3CC3)C2)c1C#N (stereo not drawn) [CBK307553],89.3
5,CCOC(=O)CN1CC(O)CC1c1cccc(C(F)(F)F)c1 (stereo not drawn) [CBK304169],97.9
6,O=C(O)CCC(=O)NNC(=O)c1ccc(O)cc1 [CBK261353],105
7,CC(C)(C)C(=O)Nc1ccc(C(=O)Nc2cccc(C(=O)O)c2)cc1 [CBK261329],94.8
8,CC(C(=O)NCCn1nc(-c2ccco2)ccc1=O)c1ccccc1 (stereo not drawn) [CBK283861],93.6
9,COc1cccc(CN2CCN(Cc3ccco3)[C@@H](C)C2)c1 [CBK284265],80.3
10,CCSc1nnc(-c2cccc(C)c2)n1CC1CCCO1 (stereo not drawn) [CBK085413],93.1
11,O=C(Nc1cc(Cl)cc(Cl)c1)c1csnn1 [CBK057759],88.1
12,C#CC1(NC(=O)NS(=O)(=O)c2ccc(C)cc2)CCCCC1 [CBK028805],96.9
13,O=C(Nc1cccc2cc[nH]c12)c1cccc(F)c1Cl [CBK160074],99.8
14,Cc1c(S(=O)(=O)Nc2ccc3cn[nH]c3c2)cnn1-c1ccccc1 [CBK067149],92.4
15,COc1ccc(C)cc1CC(=O)N1CCc2c(sc3ncnc(N)c23)C1 [CBK305878],83.4
16,Cc1cnoc1-c1cc(Br)cc(Br)c1O [CBK012420],104
17,Cc1ccc(N(CC(=O)Nc2cccc3ccccc23)S(=O)(=O)c2ccc(F)cc2)cc1 [CBK262707],94.7
18,O=C(/C=C/c1cn([C@H]2C[C@@H](O)[C@@H](CO)O2)c(=O)[nH]c1=O)ON1C(=O)CCC1=O [CBK201188],99.3
19,C=CCNC(=O)N[C@H]1CO[C@H]2[C@@H]1OC[C@H]2OC(=O)Nc1ccccc1 [CBK289466],115
20,O=C(CCc1cn2ccccc2n1)NCc1cc2n(n1)CCCNC2 [CBK307157],88.8
21,O=[N+]([O-])c1ccccc1CN1C[C@H](O)C[C@H]1c1nc(-c2ccncc2)no1 [CBK288839],91.2

# Same assay, conditions: human, hela cells, % viability, bulk resorufin, single well
row,Structure (SMILES),"viability at 28.5 h, 10 µM [%]"
1,O=C1NC(=O)C(=CNCCN2CCN(C(=O)c3ccccc3)CC2)C(=O)N1 [CBK265190],90.5
2,COc1ccc(CCn2nc(C(=O)O)c3ccccc32)cc1 [CBK093525],85
3,O=C(O)CC1(CC(=O)N2CCC3(CC2)OCc2cc(F)ccc2O3)CCCC1 [CBK060858],94.7
